# Source: paper PMC12541891 (MicrobiologyOpen, 2025)
# Tests used:
# C. krusei biofilm [1] = test: Biofilm metabolic activity by XTT-reduction assay; type: cell-based, Candida krusei
# Protocol: (§1) For all bacterial strains considered in the study, biofilm was performed on a 96‐well plate inoculated with 200 µL of a bacterial suspension 1 × 10^6 CFU/mL and incubated 24 h at 37°C. After incubation for 4 h at 37°C, the medium was aspirated, non‐adherent cells were removed, washed with PBS and added with 200 µL of fresh medium. […] Similarly, to perform fungal biofilm, the different Candida species were grown for 24 h at 28°C on a multi‐wells plate, washed twice with sterile PBS, and then resuspended at 37°C in RPMI 1640 plus 10% FBS at 2.5 × 10^7 cells. After incubation for 3 h at 37°C in six‐well polystyrene plates, the medium was aspirated, non‐adherent cells were removed and washed with PBS.
# (§2) The biofilm metabolic activity was evaluated by XTT assay, that highpoints the activity through the reduction of the tetrazolium salt to formazan. After the removal of supernatant and washing with PBS, a solution of XTT‐menadione solution were added to wells. The XTT‐menadione was prepared dissolving XTT powder in prewarmed PBS (37°C) at 0.5 g/L. The solution was sterilized through a 0.22 μm pore size filter. Before each assay, the XTT solution was thawed and supplemented with menadione, a 10 mM stock dissolved in acetone to a final concentration 1 μM. Plates were incubated for 3 h at 37°C in the dark and then the absorbance was measured at 492 nm using the microplate reader, Tecan Sunrise.
# C. krusei biofilm [2] = test: Biofilm biomass by crystal violet (CV) assay; type: cell-based, Candida krusei
# Protocol: as §1
# (§3) To quantify bacterial and Candida biofilm biomass, CV, a dye able to color the biofilm matrix, was used. Firstly, after the removal of supernatant and washing with PBS, biofilm was fixed adding 100 µL of 99% methanol for 15 min. Then, methanol was rinsed off and the plates were air‐dried. Subsequently, 100 µL of a 0.1% of CV solution were added to wells and, after 20 min of contact, the plates were washed under running tap water. To dissolve the bounded CV, 150 µL of 33% of glacial acetic acid were added to wells. The absorbance was measured at 590 nm using an automatic microplate reader, Tecan Sunrise (Tecan Group Ltd., Männedorf, Switzerland).
# C. glabrata biofilm [3] = test: Biofilm biomass by crystal violet (CV) assay; type: cell-based, Candida glabrata
# Protocol: as §1, §3
# C. albicans biofilm [4] = test: Biofilm metabolic activity by XTT-reduction assay; type: cell-based, Candida albicans
# Protocol: as §1, §2
# C. glabrata biofilm [5] = test: Biofilm metabolic activity by XTT-reduction assay; type: cell-based, Candida glabrata
# Protocol: as §1, §2
# C. albicans biofilm [6] = test: Biofilm biomass by crystal violet (CV) assay; type: cell-based, Candida albicans
# Protocol: as §1, §3
# ESBL-Ec biofilm [7] = test: Biofilm metabolic activity by XTT-reduction assay; type: cell-based, Escherichia coli
# Protocol: as §1, §2
# E. coli biofilm [8] = test: Biofilm metabolic activity by XTT-reduction assay; type: cell-based, Escherichia coli
# Protocol: as §1, §2
# MRSA biofilm [9] = test: Biofilm biomass by crystal violet (CV) assay; type: cell-based, Staphylococcus aureus
# Protocol: as §1, §3
# MRSA biofilm [10] = test: Biofilm metabolic activity by XTT-reduction assay; type: cell-based, Staphylococcus aureus
# Protocol: as §1, §2
# S. aureus biofilm [11] = test: Biofilm metabolic activity by XTT-reduction assay; type: cell-based, Staphylococcus aureus
# Protocol: as §1, §2
# ESBL-Ec biofilm [12] = test: Biofilm biomass by crystal violet (CV) assay; type: cell-based, Escherichia coli
# Protocol: as §1, §3
# E. coli biofilm [13] = test: Biofilm biomass by crystal violet (CV) assay; type: cell-based, Escherichia coli
# Protocol: as §1, §3
# C. albicans AIDS 68 = test: MIC and MFC by microbroth dilution; type: cell-based; conditions: Candida albicans, AIDS68, C. albicans
# Protocol: (§4) No substance was added, in one well, for growth control. A bacterial suspension of 1 × 10^8 CFU/mL was inoculated into all wells of the plate and incubated for 24 h at 37°C. […] The dilutions ranged from 4 to 2000 µg/mL for the substances. The inoculum size was about 2.5×10^3 cells/mL. The plates were incubated at 28°C for 24–48 h. The MIC was determined as the lowest substances' concentration where no visible bacterial or fungal growth was observed. […] Each antimicrobial assay was performed in triplicate.
# C. tropicalis 45,615 = test: MIC and MFC by microbroth dilution; type: cell-based; conditions: Candida tropicalis, C. tropicalis
# Protocol: as §4
# [14] = test system: Escherichia coli MG1655 (ATCC 700926); test: MIC and MBC by microbroth dilution; type: cell-based
# Protocol: as §4
# [15] = test system: methicillin resistant S. aureus (MRSA); test: MIC and MBC by microbroth dilution; type: cell-based; conditions: Staphylococcus aureus
# Protocol: as §4
# [16] = test system: Staphylococcus aureus ATCC 6538; test: MIC and MBC by microbroth dilution; type: cell-based
# Protocol: as §4
# [17] = test system: Extended Spectrum-Beta-Lactamase producing E. coli (ESBL-Ec); test: MIC and MBC by microbroth dilution; type: cell-based; conditions: Escherichia coli, ESBL-Ec
# Protocol: as §4
# S. aureus biofilm [18] = test: Biofilm biomass by crystal violet (CV) assay; type: cell-based, Staphylococcus aureus
# Protocol: as §1, §3
# C. krusei 44956 = test: MIC and MFC by microbroth dilution; type: cell-based, Candida krusei; conditions: Pichia kudriavzevii, 44956, C. krusei
# Protocol: as §4
# C. tropicalis biofilm [19] = test: Biofilm biomass by crystal violet (CV) assay; type: cell-based, Candida tropicalis; conditions: substance alone at MIC
# Protocol: as §1, §3
# C. tropicalis biofilm [20] = test: Biofilm metabolic activity by XTT-reduction assay; type: cell-based, Candida tropicalis; conditions: biofilm in formation (3 h), substance alone at MIC
# Protocol: as §1, §2
# C. glabrata DSY562 = test: MIC and MFC by microbroth dilution; type: cell-based, Candida glabrata; conditions: Nakaseomyces glabratus, DSY562, C. glabrata
# Protocol: as §4
# [21] = preformed biofilm, sub-MIC concentrations alone or in combination (Table 5)
# [22] = biofilm in formation, sub-MIC concentrations alone or in combination (Table 5)
# [23] = biofilm in formation (4 h), substance alone at MIC
# [24] = biofilm in formation, sub-MIC concentrations alone or in combination (Table 5), listed as T
# [25] = preformed biofilm (24 h), substance alone at MIC
# [26] = planktonic, 24-48 h, read-out: MIC
# [27] = planktonic, 24 h, read-out: MIC
# [28] = biofilm in formation (3 h), substance alone at MIC
# [29] = biofilm in formation (3 h), substance alone at MIC, listed as thymol
compound,measurement,setting,value
"OC(Cn1cncn1)(Cn1cncn1)c1ccc(F)cc1F [FLC, fluconazole, reference compound]",Percentage of metabolic activity reduction,C. krusei biofilm [1]; [21],14%
same,Percentage of biomass reduction,C. krusei biofilm [2]; [21],14%
same,Percentage of biomass reduction,C. glabrata biofilm [3]; [22],20.5%
same,Percentage of metabolic activity reduction,C. albicans biofilm [4]; [22],25.1%
same,Percentage of metabolic activity reduction,C. albicans biofilm [4]; [21],6.9%
same,Percentage of metabolic activity reduction,C. glabrata biofilm [5]; [22],27.1%
same,Percentage of metabolic activity reduction,C. glabrata biofilm [5]; [21],5.3%
same,Percentage of biomass reduction,C. albicans biofilm [6]; [22],30.6%
"CNC(C)C1CCC(N)C(OC2C(N)CC(N)C(OC3OCC(C)(O)C(NC)C3O)C2O)O1 (stereo not shown) [GM, gentamicin, reference compound]",Percentage of metabolic activity reduction,ESBL-Ec biofilm [7]; [22],50%
same,Percentage of metabolic activity reduction,E. coli biofilm [8]; [22],35.9%
same,Percentage of metabolic activity reduction,E. coli biofilm [8]; [21],48.3%
same,Percentage of biomass reduction,MRSA biofilm [9]; [22],57.6%
same,Percentage of biomass reduction,MRSA biofilm [9]; [21],33.6%
same,Percentage of metabolic activity reduction,MRSA biofilm [10]; [22],22.3%
same,Percentage of metabolic activity reduction,MRSA biofilm [10]; [21],16%
same,Percentage of metabolic activity reduction,S. aureus biofilm [11]; [21],15.2%
same,Percentage of biomass reduction,ESBL-Ec biofilm [12]; [22],66.7%
same,Percentage of biomass reduction,ESBL-Ec biofilm [12]; [21],48.9%
same,Percentage of biomass reduction,E. coli biofilm [13]; [22],48%
same,Percentage of biomass reduction,E. coli biofilm [13]; [21],59.8%
"Cc1ccc(C(C)C)c(O)c1 [Thymol, 2‐isopropyl‐5‐methylphenol]",Percentage of metabolic activity reduction,ESBL-Ec biofilm [7]; [23],77.9%
same,Percentage of metabolic activity reduction,ESBL-Ec biofilm [7]; [22],~50%
same,Percentage of metabolic activity reduction,ESBL-Ec biofilm [7]; [24],52%
same,Percentage of metabolic activity reduction,ESBL-Ec biofilm [7]; [25],74%
same,Percentage of metabolic activity reduction,E. coli biofilm [8]; [23],84.8%
same,Percentage of metabolic activity reduction,E. coli biofilm [8]; [22],~50%
same,Percentage of metabolic activity reduction,E. coli biofilm [8]; [24],51.3%
same,Percentage of metabolic activity reduction,E. coli biofilm [8]; [25],74%
same,Percentage of metabolic activity reduction,E. coli biofilm [8]; [21],22.4%
same,MIC,C. albicans AIDS 68; [26],≥ 2000 mg/L
same,MFC,C. albicans AIDS 68; read-out: MFC,≥ 2000 mg/L
same,MIC,"C. tropicalis 45,615; [26]",≥ 2000 mg/L
same,MFC,"C. tropicalis 45,615; read-out: MFC",≥ 2000 mg/L
same,MIC,"[14]; E. coli MG1655, planktonic, 24 h, read-out: MIC",125 mg/L
same,MBC,"[14]; E. coli MG1655, read-out: MBC",250 mg/L
same,MIC,[15]; [27],250 mg/L
same,MBC,[15]; read-out: MBC,250 mg/L
same,MIC,"[16]; ATCC6538, S. aureus 6538, planktonic, 24 h, read-out: MIC",250 mg/L
same,MBC,"[16]; ATCC6538, S. aureus 6538, read-out: MBC",250 mg/L
same,MIC,[17]; [27],125 mg/L
same,MBC,[17]; read-out: MBC,250 mg/L
same,Percentage of metabolic activity reduction,C. krusei biofilm [1]; [28],71.7%
same,Percentage of metabolic activity reduction,C. krusei biofilm [1]; [22],25%
same,Percentage of metabolic activity reduction,C. krusei biofilm [1]; [25],47%
same,Percentage of metabolic activity reduction,C. krusei biofilm [1]; [21],25.1%
same,Percentage of biomass reduction,C. krusei biofilm [2]; [28],no effect
same,Percentage of biomass reduction,C. krusei biofilm [2]; [25],18.5%
same,Percentage of biomass reduction,MRSA biofilm [9]; [23],90%
same,Percentage of biomass reduction,MRSA biofilm [9]; [24],22.6%
same,Percentage of biomass reduction,MRSA biofilm [9]; [25],87%
same,Percentage of biomass reduction,MRSA biofilm [9]; [21],31.3%
same,Percentage of biomass reduction,S. aureus biofilm [18]; [23],79.7%
same,Percentage of biomass reduction,S. aureus biofilm [18]; [24],11.6%
same,Percentage of biomass reduction,S. aureus biofilm [18]; [25],82.7%
same,MIC,C. krusei 44956; [26],≥ 2000 mg/L
same,MFC,C. krusei 44956; read-out: MFC,≥ 2000 mg/L
same,Percentage of metabolic activity reduction,MRSA biofilm [10]; [23],96.3%
same,Percentage of metabolic activity reduction,MRSA biofilm [10]; [25],97.5%
same,Percentage of metabolic activity reduction,MRSA biofilm [10]; [21],17.2%
same,Percentage of metabolic activity reduction,S. aureus biofilm [11]; [23],90%
same,Percentage of metabolic activity reduction,S. aureus biofilm [11]; [24],12%
same,Percentage of metabolic activity reduction,S. aureus biofilm [11]; [25],90%
same,Percentage of biomass reduction,C. tropicalis biofilm [19]; biofilm in formation (3 h),37.1%
same,Percentage of biomass reduction,"C. tropicalis biofilm [19]; biofilm in formation (3 h), listed as thymol",about 40%
same,Percentage of biomass reduction,C. tropicalis biofilm [19]; preformed biofilm (24 h),11.8%
same,Percentage of metabolic activity reduction,C. tropicalis biofilm [20],53.9%
same,Percentage of biomass reduction,C. glabrata biofilm [3]; [28],52.1%
same,Percentage of biomass reduction,C. glabrata biofilm [3]; [29],about 40%
same,Percentage of biomass reduction,C. glabrata biofilm [3]; [25],17.5%
same,Percentage of metabolic activity reduction,C. albicans biofilm [4]; [28],85.1%
same,Percentage of metabolic activity reduction,C. albicans biofilm [4]; [22],about 22%
same,Percentage of metabolic activity reduction,C. albicans biofilm [4]; [24],24.0%
same,Percentage of metabolic activity reduction,C. albicans biofilm [4]; [25],84.1%
same,Percentage of metabolic activity reduction,"C. albicans biofilm [4]; preformed biofilm (24 h), substance alone at MIC, listed as thymol",80%
same,Percentage of metabolic activity reduction,C. albicans biofilm [4]; [21],9.0%
same,MIC,C. glabrata DSY562; [26],≥ 2000 mg/L
same,MFC,C. glabrata DSY562; read-out: MFC,≥ 2000 mg/L
same,Percentage of biomass reduction,ESBL-Ec biofilm [12]; [23],70%
same,Percentage of biomass reduction,ESBL-Ec biofilm [12]; [25],69.8%
same,Percentage of biomass reduction,E. coli biofilm [13]; [23],87.7%
same,Percentage of biomass reduction,E. coli biofilm [13]; [25],87%
same,Percentage of metabolic activity reduction,C. glabrata biofilm [5]; [28],90%
same,Percentage of metabolic activity reduction,C. glabrata biofilm [5]; [25],9.6%
same,Percentage of metabolic activity reduction,C. glabrata biofilm [5]; [21],11.4%
same,Percentage of biomass reduction,C. albicans biofilm [6]; [28],44.6%
same,Percentage of biomass reduction,C. albicans biofilm [6]; [29],about 40%
same,Percentage of biomass reduction,C. albicans biofilm [6]; [22],about 22%
same,Percentage of biomass reduction,C. albicans biofilm [6]; [24],22.5%
